How the values were obtained:
[1] = Double-blinded randomized clinical trials in seasonal allergic rhinitis
Protocol: Efficacy endpoints in all the studies were Total Symptom Score, Total Nasal Symptom Score, Total Non-nasal Symptom Score, and Health Quality of Life (HQOL) analysis in efficacy trials. […] This parameter measures the total symptom relief by the patient after 24 hours before taking the next day dose.

[2] = Treatment of chronic idiopathic urticaria; settings: oral administration
P-gp = P-gp (UniProt P21448); settings: ATP hydrolysis
Protocol: The invention will be further described by reference to the following study.
A direct functional assay was performed with […] as described previously. Ibid. The consumption of ATP was determined by the liberated inorganic orthophosphate, which forms a color complex with molybdate.
If a compound is a substrate of P-gp the hydrolysis of ATP is required as the driving force. As ATP is consumed at a purported rate of about one or two per transport event, the hydrolysis of ATP represents transport rate or activity assay of function. […] Any change in the rate of ATP hydrolysis represents the sum of the basal activity and the contribution of the exogenous substrate to ATP hydrolysis.

human OATP = biological target: T1, human OATP (Homo sapiens, UniProt P46721); settings: cited from earlier work
T1 sequence (P46721 1-670): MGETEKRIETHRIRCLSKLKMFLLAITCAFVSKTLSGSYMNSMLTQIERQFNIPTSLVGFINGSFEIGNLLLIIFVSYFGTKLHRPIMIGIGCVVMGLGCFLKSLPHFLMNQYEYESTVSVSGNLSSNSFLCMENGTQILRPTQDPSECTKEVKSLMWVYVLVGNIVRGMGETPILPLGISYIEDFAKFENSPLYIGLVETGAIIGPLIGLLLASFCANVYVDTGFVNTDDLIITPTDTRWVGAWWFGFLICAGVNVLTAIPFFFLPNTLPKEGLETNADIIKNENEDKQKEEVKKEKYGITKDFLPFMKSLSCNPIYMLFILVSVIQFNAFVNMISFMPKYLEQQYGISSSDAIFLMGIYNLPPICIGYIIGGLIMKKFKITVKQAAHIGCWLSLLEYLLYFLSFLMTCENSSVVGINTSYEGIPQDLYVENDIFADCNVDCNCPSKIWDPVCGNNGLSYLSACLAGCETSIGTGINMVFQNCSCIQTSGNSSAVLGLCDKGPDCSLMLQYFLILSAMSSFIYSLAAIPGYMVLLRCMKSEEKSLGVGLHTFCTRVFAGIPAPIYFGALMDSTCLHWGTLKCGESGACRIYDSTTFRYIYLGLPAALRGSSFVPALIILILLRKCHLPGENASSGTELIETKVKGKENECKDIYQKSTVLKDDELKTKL

human OATP1 = biological target: T2, human OATP1 (Homo sapiens, UniProt P46721); settings: at 10 μM; cited from earlier work
T2 sequence (P46721 1-670): T1 sequence (P46721 1-670)

rat OATP1 = biological target: T3, rat OATP1 (Rattus norvegicus, UniProt P46720); settings: cited from earlier work
T3 sequence (P46720 1-670): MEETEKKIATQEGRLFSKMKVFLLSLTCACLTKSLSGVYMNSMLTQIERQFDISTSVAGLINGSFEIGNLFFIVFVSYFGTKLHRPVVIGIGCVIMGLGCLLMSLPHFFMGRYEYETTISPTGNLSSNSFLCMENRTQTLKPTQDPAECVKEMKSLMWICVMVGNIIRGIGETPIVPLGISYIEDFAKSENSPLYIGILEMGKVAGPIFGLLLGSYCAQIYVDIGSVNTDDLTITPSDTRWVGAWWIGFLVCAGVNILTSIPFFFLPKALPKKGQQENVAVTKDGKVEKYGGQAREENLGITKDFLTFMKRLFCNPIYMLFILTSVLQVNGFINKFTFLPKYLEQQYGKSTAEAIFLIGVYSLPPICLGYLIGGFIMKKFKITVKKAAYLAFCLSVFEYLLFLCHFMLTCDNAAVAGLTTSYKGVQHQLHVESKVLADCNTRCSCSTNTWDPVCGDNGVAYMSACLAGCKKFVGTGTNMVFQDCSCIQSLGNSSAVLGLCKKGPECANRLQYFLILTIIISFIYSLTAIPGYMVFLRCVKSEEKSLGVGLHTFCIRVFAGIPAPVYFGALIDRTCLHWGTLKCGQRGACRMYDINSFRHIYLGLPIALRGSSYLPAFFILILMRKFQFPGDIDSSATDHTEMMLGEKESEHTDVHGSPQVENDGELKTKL

Molecule: Clc1ccc2c(c1)CCc1cccnc1C2=C1CCNCC1 [desloratadine]
- Reduction of nasal symptoms versus placebo ([1]; 5 mg): significantly (p<0.01) more effective than placebo
- Total symptom scores ([1]; 5 mg once daily): significantly reduced
- AM NOW total symptom score ([1]; full 24 hour dosing interval, 5 mg to 20 mg): Statistically significant (p<0.05) reductions
- Severity of pruritis, number of hives, size of largest hive, total symptom score [2]: significantly reduced

Molecule: CCOC(=O)N1CCC(=C2c3ccc(Cl)cc3CCc3cccnc32)CC1 [loratadine]
- Vmax above basal activity (P-gp; FIG. 3): ≈ 200%
- Vmax as % of basal (control) activity (P-gp; without H33342): about 200%

Molecule: CC[C@H](C)C(=O)O[C@H]1C[C@@H](C)C=C2C=C[C@H](C)[C@H](CC[C@@H]3C[C@@H](O)CC(=O)O3)[C@H]21 [lovastatin]
- Inhibition of fexofenadine uptake (human OATP): significant inhibition
- Inhibition of human OATP1 (human OATP1): effectively inhibits
- Inhibition of rat OATP1 (rat OATP1; at 50 μM): effectively inhibit

Molecule: CC(C)c1nc(CN(C)C(=O)N[C@H](C(=O)N[C@@H](Cc2ccccc2)C[C@H](O)[C@H](Cc2ccccc2)NC(=O)OCc2cncs2)C(C)C)cs1 [ritonavir]
- Inhibition of fexofenadine uptake (human OATP): significant inhibition
- Inhibition of human OATP1 (human OATP1): effectively inhibit

Molecule: CC(C)(C)NC(=O)[C@@H]1C[C@@H]2CCCC[C@@H]2CN1C[C@@H](O)[C@H](Cc1ccccc1)NC(=O)[C@H](CC(N)=O)NC(=O)c1ccc2ccccc2n1 [saquinavir]
- Inhibition of fexofenadine uptake (human OATP): significant inhibition
- Inhibition of human OATP1 (human OATP1): effectively inhibit

Molecule: APD-ajmalinium
- Transport by rat OATP (rat OATP1): transports

Reference: patent US6599913B1, “Treating allergic and inflammatory conditions” (Schering Corporation, priority 2001, dated 2003)
